Experimental data as given in US9962350B2, “Agent for improving normal development rate of fertilized eggs” (SBI Pharmaceuticals Co., Ltd., priority 2014, dated 2018).

Test system: fertilized eggs obtained by the mating between female mice of the BDF2 lineage and male mice of the BDF1 lineage
Assay: In vitro culture of natural mating-derived fertilized eggs (BDF2 females x BDF1 males) with ALA; embryo development
Assay type: cell-based, mouse
Conditions: 1 μM ALA
Procedure: Aside therefrom, a drop of 100 μL of M16 medium covered with mineral oil (manufactured by Sigma-Aldrich Corp.) and supplemented with ALA hydrochloride (manufactured by SBI Pharmaceuticals Co., Ltd.) at a final concentration of 0 μM (control), 0.1 μM, 0.5 μM, or 1 μM was prepared in a 35 mm Petri dish and left standing at 37° C. in a CO2 incubator. 29 or 30 of the cumulus cell-free fertilized eggs were transferred to the resulting drop and cultured in vitro at 37° C. in a CO2 incubator.
After a lapse of 24 hours, 48 hours, 72 hours, and 96 hours from the start of the in vitro culture (0 hours) in the drop, the developmental stage of each embryo was determined by observation under a stereoscopic microscope, and the number of embryos whose development progressed normally and change in development rate were calculated. Specifically, the number of 2-cell eggs 24 hours after the start of the culture, the number of 3-cell, 4-cell, and 8-cell eggs 48 hours thereafter, the number of morulae and blastocysts 72 hours thereafter, and the number of blastocysts 96 hours thereafter were counted as embryos whose development progressed normally at each stage. The development rate with the number of fertilized eggs (0 hours) defined as 100% is shown in Table 3 and the graph of FIG. 1. For the evaluation of the development rate, the percentage of the number of embryos whose development progressed normally 24 hours, 48 hours, 72 hours, and 96 hours after the start of the culture was calculated with the number of fertilized eggs (0 hours) defined as 100%, and used as a normal development rate. Because of the natural mating, the number of recovered fertilized eggs (0 hours) includes unfertilized eggs to some extent, and there is the possibility that the content of unfertilized eggs varies accidentally among fertilized eggs (0 hours) populations distributed to the respective condition groups even if the fertilized eggs (0 hours) populations have been recovered in the same experiment. The development rate calculated with the number of 2-cell embryos 24 hours postfertilization defined as 100% was calculated in order to eliminate the influence of the content of unfertilized eggs that varies accidentally among the respective condition groups. In short, in order to calculate the development rate on the basis of the number of eggs that reliably started embryo development, the development rate with the number of 2-cell embryos 24 hours postfertilization defined as 100% is shown in Table 4 and the graph of FIG. 2. The results of each test group were statistically analyzed by the square test (chi-square test) with a statistically significant difference of p<0.01 (**) and p<0.05 (*).
The study was conducted in the same way as in Example 1 except that: the female mice used to harvest fertilized eggs were female mice of the BDF2 lineage (5 to 24 weeks old, body weight: 16 to 25 g) obtained by the mating between females and males of the BDF1 lineage (F1 of C57BL/6 females×DBA/2 males); the male mice used for mating were male mice of the BDF1 lineage (F1 of C57BL/6 females×DBA/2 males) (46 to 52 weeks old, body weight: 30 to 45 g); and 1 μM ALA was studied. The results are shown in Tables 5 to 7 below and FIGS. 3 and 4.

NCC(=O)CCC(=O)O [ALA, 5-aminolevulinic acid]
The number of developed embryos (24 hr): 41 | development rate with the number of fertilized eggs (0 hr) defined as 100% (24 hr): 82% | The number of developed embryos (48 hr): 41 | development rate with the number of 2-cell embryos 24 hours postfertilization defined as 100% (48 hr): 100% | development rate with the number of fertilized eggs (0 hr) defined as 100% (48 hr): 82% | The number of developed embryos (72 hr): 40 | development rate with the number of fertilized eggs (0 hr) defined as 100% (72 hr): 80% | The number of developed embryos (96 hr): 40 | development rate with the number of fertilized eggs (0 hr) defined as 100% (96 hr): 80% | development rate as compared with the ALA-unsupplemented control (in words) (number of fertilized eggs (0 hours) defined as 100%): elevate the development rate
